Measured values published in patent publication US20230000872A1, “TRPA1 ANTAGONIST FOR THE TREATMENT OF PAIN ASSOCIATED TO DIABETIC NEUROPATHIC PAIN” (Glenmark Pharmaceuticals S.A., priority 2014, published 2023).

Columns and labels:
[1] = system: subjects with painful DPN; assay: Phase II clinical study of Compound I 250 mg BID, 4 weeks, in subjects with painful diabetic neuropathy (Example 1); assay type: in vivo, human; parameters: key to Mean API score (24-hour): 11-point pain intensity NRS (0–10); key to Night-time API Score, mean score: API score on 11-point pain intensity NRS (0–10); conditions: for Sleep interference score, mean score: 11-point scale; for API Score, mean score: 11-point NRS; for % subject population with >30% Reduction from baseline API Score / % subject population with >50% Reduction from baseline API Score: end of 4 week treatment
Source text: Example 1: A Phase II Clinical Study to Evaluate Efficacy, Safety and Tolerability of Compound I in Subjects With Painful Diabetic Neuropathy
• To assess the efficacy of Compound I in the treatment of pain associated with diabetic peripheral neuropathy (DPN). • To evaluate the safety and tolerability of Compound I administered once daily (OD) or twice daily (BID) in subjects with painful DPN. • To investigate effect of Compound I on time to sustained improvement in pain, night-time pain, intensity of pain on neuropathic pain symptoms inventory (NPSI), and sleep in subjects with painful DPN. • To evaluate number of subjects who are responders on the […] of Change (PGIC) Questionnaire, Clinician Global Impression of Change (CGIC) Questionnaire; and number of subjects who achieve various levels of percent reduction in pain. • To investigate the pharmacokinetics (PK) of Compound I in subjects with DPN • To investigate effect of Compound I on the use of rescue medication (ibuprofen 400 mg to 600 mg four times a day or paracetamol 500 mg to 1000 mg two to three times a day) in subjects with painful DPN • To investigate effect of Compound I in subjects with painful DPN who have mechanical hyperalgesia and/or cold allodynia.
This was a multi-center, randomized, double-blind, placebo-controlled, parallel group, 4 week study of Compound I 250 mg BID in subjects with painful DPN. The study included a total of 138 subjects with DPN, randomized in a 1:1 ratio into 250 mg BID Compound I or Placebo. The study was conducted for a total period of 9 weeks as: up to a 2-week screening/washout period, a 1-week placebo-run in period, 4 weeks of treatment period and 2 weeks of follow-up period.
• Men and women (post-menopausal/surgically sterile only) aged between 18-75 (both inclusive) years • Subjects having diabetes mellitus (type 1 or 2) with a distal symmetric chronic sensorimotor painful peripheral neuropathy • A history of DPN pain for at least 6 months and no greater than 5 years. • DN4 “Douleur Neuropathique en 4” questions score of ≥4 • A baseline 24-hour average daily pain intensity score ≥4 and <9 as measured on a 11-point pain intensity NRS (numeric rating scale) • Subjects having stable glycemic control for at least one or two or three months prior to randomization having HbAlc (Glycosylated Hemoglobin) <8% • Subjects detected to have mechanical hyperalgesia and/or cold allodynia (detected with appropriate methodology)
Study medications were: • Placebo matching 250 mg Compound I during the placebo run-in period was taken orally BID in a fed state (30 minutes after breakfast/dinner) every day for day −7 to day −1 during Run-in period. The time interval between 2 consecutive doses must be 12 hours±60 min • 250 mg Compound I potassium granules or matching placebo during day-1 to day-28 treatment period. The time interval between 2 consecutive doses was 12 hours±60 min. • Reference therapy: Placebo to match investigational product, administered BID.
Clinical Endpoints were: • Change from baseline to end of treatment (i.e., baseline to end of week 4) in the mean 24-hour API score based on an 11-point pain intensity NRS • Change from baseline at the end of week 1, 2, 3, 4 and 6 in: • Mean night-time API (average pain intensity) Score (subject diary): night-time is defined as the time between going to bed at night and rising in the morning • Mean night-time worst pain intensity Score (subject diary): worst pain is defined as the subject's assessment of their worst pain intensity for the time period • Mean sleep interference Score (subject diary): A 11-point scale that asks subjects to select the score that best describes how much the pain interfered with sleep during the past 24 hours.

[2] = system: subjects with painful DPN and having preserved peripheral nerve function; assay: Phase II clinical study of Compound I 250 mg BID, 4 week treatment plus 2 weeks follow up, in subjects with painful DPN and preserved peripheral nerve function (Example 2); assay type: in vivo, human
Source text: Example 2: A Phase II Clinical Study to Evaluate Efficacy, Safety and Tolerability of Compound I in Subjects With Painful Diabetic Neuropathy
• Objectives of this study were To assess the safety, efficacy and tolerability of Compound I in the treatment of pain associated with diabetic peripheral neuropathy (DPN) and to evaluate efficacy of Compound I administered once daily (OD) or twice daily (BID) in subjects with painful DPN and having preserved peripheral nerve function and to investigate effect of Compound I on time to sustained improvement in pain, night-time pain, intensity of pain on neuropathic pain symptoms inventory (NPSI), and sleep in subjects with painful DPN and having preserved peripheral nerve function. • This was a randomized, double-blind, placebo-controlled, parallel group, 4 week treatment followed by 2 weeks follow up study of Compound I 250 mg and placebo BID in subjects with painful DPN and having preserved peripheral nerve function. The study included a total of 136 subjects with DPN and having preserved peripheral nerve function. • Clinical Endpoints were change from baseline in mean 24-hour API score based on an 11-point pain intensity NRS at the end of week 4 and week 6 in • In ITT ([…]) population and • In subject having one or more from baseline average pain intensity (API) score of ≥5, Cold detection threshold >18° C. at baseline as determined by QST and Warm detection threshold <49° C. at baseline as determined by QST

[3] = Sub-group: Hypersensitivity to cold stimulus and/or mechanical stimulus, Week 4
[4] = Sub-group: Moderate to severe pain (NRS score 5-8) and hypersensitivity to cold stimulus and/or mechanical stimulus, Week 4
[5] = Sub-group: Moderate to severe pain (NRS score 5-8) and preserved peripheral sensory neurons, Week 4
[6] = Sub-group: Moderate to severe pain (NRS score 5-8), Week 4
[7] = Sub-group: Preserved peripheral sensory neurons (non-denervation by QST), Week 4
[8] = Week 0 (baseline), 250 mg BID oral
[9] = Week 4 vs baseline, 250 mg BID oral
[10] = Sub-group: Hypersensitivity to cold stimulus and/or mechanical stimulus
[11] = Sub-group: Moderate to severe pain (NRS score 5-8)
[12] = Sub-group: Moderate to severe pain (NRS score 5-8) and hypersensitivity to cold stimulus and/or mechanical stimulus
[13] = Sub-group: Moderate to severe pain (NRS score 5-8) and preserved peripheral sensory neurons
[14] = Sub-group: preserved peripheral sensory neurons
[15] = subjects with one or more of baseline API score ≥5, Cold detection threshold >18° C., Warm detection threshold <49° C. (QST), Week 4
[16] = subjects with one or more of baseline API score ≥5, Cold detection threshold >18° C., Warm detection threshold <49° C. (QST), Week 6

In the case of `Cn1c(=O)c2c(CC(=O)Nc3nc(-c4ccc(F)c(C(F)(F)F)c4F)cs3)csc2n(C)c1=O` [Compound I, N-{4-[2,4-difluoro-3-(trifluoromethyl)phenyl]-1,3-thiazol-2-yl}-2-(1,3-dimethyl-2,4-dioxo-1,2,3,4-tetrahydrothieno[2,3-d]pyrimidin-5-yl)acetamide], the “Onset of Sustained improvement in 24-hour API Score” value ([1]; 250 mg BID oral) was “Score is achieved in 18 days”, the “Mean API score (24-hour)” value ([1]; Sub-group: Hypersensitivity to cold stimulus and/or mechanical stimulus, Week 0 (baseline)) was 6.1 and the “API score % Reduction from baseline” value [1, 3] was 32.78%. The “Mean API score (24-hour)” value [1, 3] was 4.1, the “Mean API score (24-hour)” value ([1]; Sub-group: Moderate to severe pain (NRS score 5-8) and hypersensitivity to cold stimulus and/or mechanical stimulus, Week 0 (baseline)) was 6.5 and the “API score % Reduction from baseline” value [1, 4] was 36.92%. The “Mean API score (24-hour)” value [1, 4] was 4.1, the “Mean API score (24-hour)” value ([1]; Sub-group: Moderate to severe pain (NRS score 5-8) and preserved peripheral sensory neurons, Week 0 (baseline)) was 6.4 and the “API score % Reduction from baseline” value [1, 5] was 35.93%. For the same compound, the “Mean API score (24-hour)” value [1, 5] was 4.1, the “Mean API score (24-hour)” value ([1]; Sub-group: Moderate to severe pain (NRS score 5-8), Week 0 (baseline)) was 6.3 and the “API score % Reduction from baseline” value [1, 6] was 33.33%. For the same compound, the “Mean API score (24-hour)” value [1, 6] was 4.2, the “Mean API score (24-hour)” value ([1]; Sub-group: Preserved peripheral sensory neurons (non-denervation by QST), Week 0 (baseline)) was 6.2 and the “API score % Reduction from baseline” value [1, 7] was 33.33%. For the same compound, the “Mean API score (24-hour)” value [1, 7] was 4.1, the “Mean daily dose of rescue medication” value [1, 8] was 425 mg and the “Night-time API Score, mean score” value [1, 8] was 5.1. The “Night-time Worst pain intensity Score, mean score” value [1, 8] was 5.3, the “Sleep interference score, mean score” value [1, 8] was 4.5 and the “API Score, mean score” value ([1]; Week 0, 250 mg BID oral) was 6.0. The “Mean daily dose of rescue medication” value ([1]; Week 4, 250 mg BID oral) was 111 mg, the “Night-time API Score, mean score” value ([1]; Week 4, 250 mg BID oral) was 3.4 and the “Night-time Worst pain intensity Score, mean score” value ([1]; Week 4, 250 mg BID oral) was 3.5. The “API Score, mean score” value ([1]; Week 4, 250 mg BID oral) was 4.1, the “Sleep interference score, mean score” value ([1]; Week 4, 250 mg BID oral) was 2.7 and the “API Score, % Reduction” value ([1]; Week 4 vs Week 0, 250 mg BID oral) was 31.66%. For the same compound, the “Change in mean daily dose of rescue medication, % Reduction” value [1, 9] was 73.8%, the “Night-time API Score, % Reduction” value [1, 9] was 33.33% and the “Night-time Worst pain intensity Score, % Reduction” value [1, 9] was 33.96%. For the same compound, the “Sleep interference score, % Reduction” value [1, 9] was 40%, the “% subject population with >30% Reduction from baseline API Score” value (shortened to “% subject population with >30% Reduction”) [1, 10] was 59.1% and the “% subject population with >50% Reduction from baseline API Score” value (“% subject population with >50% Reduction” below) [1, 10] was 36.4%. For the same compound, the “% subject population with >30% Reduction” value [1, 11] was 58.6%, the “% subject population with >50% Reduction” value [1, 11] was 34.5% and the “% subject population with >30% Reduction” value [1, 12] was 66.7%. For the same compound, the “% subject population with >50% Reduction” value [1, 12] was 44.4%, the “% subject population with >30% Reduction” value [1, 13] was 56.7% and the “% subject population with >50% Reduction” value [1, 13] was 40.0%. For the same compound, the “% subject population with >30% Reduction” value [1, 14] was 52.9%, the “% subject population with >50% Reduction” value [1, 14] was 35.3% and the “Mean API score” value ([2]; ITT population, Week 0 (baseline)) was 6.0. The “API score % Reduction from baseline” value ([2]; ITT population, Week 4) was 32.16%, the “Mean API score” value ([2]; ITT population, Week 4) was 4.07 and the “API score % Reduction from baseline” value ([2]; ITT population, Week 6) was 40.16%. For the same compound, the “Mean API score” value ([2]; ITT population, Week 6) was 3.59, the “Mean API score” value ([2]; subjects with one or more of baseline API score ≥5, Cold detection threshold >18° C., Warm detection threshold <49° C. (QST), Week 0 (baseline)) was 5.0 and the “API score % Reduction from baseline” value [2, 15] was 49.6%. The “Mean API score” value [2, 15] was 2.52, the “API score % Reduction from baseline” value [2, 16] was 66.2% and the “Mean API score” value [2, 16] was 1.69.
